Assay results published in patent US12686690B2, “Macrocyclic urea orexin receptor agonists” (Merck Sharp & Dohme LLC, priority 2020, dated 2026).

Biological target: T1, hOX2R (Homo sapiens, UniProt O43614)
T1 construct: expressed in transfected cells; host or cells: CHO cells (G418 selection)
T1 sequence (O43614 1-444): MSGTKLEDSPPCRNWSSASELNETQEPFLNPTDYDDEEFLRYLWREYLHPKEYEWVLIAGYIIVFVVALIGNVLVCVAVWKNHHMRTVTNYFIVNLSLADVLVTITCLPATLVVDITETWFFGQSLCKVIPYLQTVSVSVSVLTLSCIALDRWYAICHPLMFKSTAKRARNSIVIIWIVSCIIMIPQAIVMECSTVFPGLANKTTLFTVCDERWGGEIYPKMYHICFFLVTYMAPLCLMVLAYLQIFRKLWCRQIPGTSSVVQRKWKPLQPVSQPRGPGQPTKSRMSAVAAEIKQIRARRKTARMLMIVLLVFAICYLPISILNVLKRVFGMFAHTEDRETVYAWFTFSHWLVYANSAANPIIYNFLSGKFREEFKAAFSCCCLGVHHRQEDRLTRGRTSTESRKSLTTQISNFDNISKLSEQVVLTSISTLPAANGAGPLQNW
Assay: hOX2R IPone assay (orexin receptor agonism)
Format: cell-based
Details: IPone readout; for hOX2R_Ipone max %act: maximal activation; for EC50: orexin receptor agonist, read-out: hOX2R_IPone EC50

hOX2R_Ipone max %act | EC50 | SMILES
100.8% | 0.167 µM | CCN1C(=O)N[C@@H](CCC(F)(F)F)CCCCCOc2nc(cn3ccnc23)-c2nc(ncc2C)[C@@H]1C [Example 93A, (12S,16R)-13-ethyl-8,12-dimethyl-16-(3,3,3-trifluoro-propyl)-12,13,16,17, 18,19,20,21-octa-hydro-6,23:11,7-di(azeno)imidazo[2,1-c][1,4,10,13,15]oxatet-raazacyclohenicosin-14(15H)-one]
102% | 0.0151 µM | CCN1C(=O)N[C@@H](CCC(F)(F)F)CCCCCOc2cc(nn3cc(C)nc23)-c2cc(ncc2OC)[C@H]1C [Example 166, (3R,7R,E)-4-ethyl-25-methoxy-12,3-dimethyl-7-(3,3,3-trifluoropropyl)-13-oxa-4,6-diaza-1(6,8)-imidazo[1,2-b]pyridazina-2(4,2)-pyridinacyclotridecaphan-5-one]
96.86% | 0.00074 µM | CCN1C(=O)N[C@@H](CCC(C)(F)F)CCOCCOc2nc(nn3ccnc23)-c2cc(ncc2OC)[C@H]1C [Example 155, (3R,7S,E)-7-(3,3-difluorobutyl)-4-ethyl-25-methoxy-3-methyl-10,13-dioxa-4,6-diaza-1(2,4)-imidazo[2,1-f][1,2,4]triazina-2(4,2)-pyridinacyclotridecaphan-5-one]
99.9% | 0.0392 µM | CCOCC1CCCCCOc2nc(cn3ccnc23)-c2cc(ncc2OC)[C@@H](C)N(CC)C(=O)N1 (single isomer, unassigned) [Example 62A]
101.7% | 0.0209 µM | CCN1C(=O)N[C@@H](C(F)(F)F)CCCCCOc2nc(cn3ccnc23)-c2cc(ncc2OC)[C@H]1C [Example 77, (12R,16R)-13-ethyl-8-methoxy-12-methyl-16-(trifluoromethyl)-12,13,16,17,18,19,20, 21-octahydro-6,23-(azeno)-11,7-(metheno)imidazo[2,1-c][1,4,10,13,15]oxatet-raazacyclohenicosin-14(15H)-one]
100.7% | 0.0014 µM | CCN1C(=O)N[C@@H](CCC(F)(F)F)CCCCCOc2nc(cn3ccnc23)-c2cc(ncc2OC)[C@H]1C [Example 111, (3R,7R,E)-4-ethyl-25-methoxy-3-methyl-7-(3,3,3-trifluoropropyl)-13-oxa-4,6-diaza-1(6,8)-imidazo[1,2-a]pyrazina-2(4,2)-pyridinacyclotridecaphan-5-one]
98.8% | 0.012 µM | CCN1C(=O)NCC(C(F)(F)F)N(C)CCCOc2nc(cn3ccnc23)-c2cccc(c2)C1C [Example 26B, (3R,E)-4-ethyl-3,9-dimethyl-8-(trifluoromethyl)-13-oxa-4,6,9-triaza-1(6,8)-imidazo[1,2-a]pyrazina-2(1,3)-benzenacyclotridecaphan-5-one]

SMILES | hOX2R_Ipone max %act | EC50
CCN1C(=O)NCCCN2CCCC2COc2nc(cn3ccnc23)-c2cccc(c2)[C@H]1C (mixture of isomers) [Example 4, (12R)-13-ethyl-12-methyl-12,13,15,16,17,18,21,22,22a, 23-decahydro-14H,20H-6,25-(azeno)-11,7-(metheno)imidazo[1,2-s]pyrrolo[2,1-c][1,4,8,10,19]oxatetraaza-cyclohenicosin-14-one] | 79.4% | 3.84 µM
CCN1C(=O)NCCCNCCOc2nc(cn3ccnc23)-c2cccc(c2)[C@H]1C [Example 11] | 75.54% | 0.778 µM
CCN1C(=O)NCCN(C)CCC(C)Oc2nc(cn3ccnc23)-c2cccc(c2)[C@H]1C (mixture of isomers) [Example 16, (12R)-13-ethyl-12,18,21-trimethyl-12,13, 16,17,18,19,20,21-octahydro-6,23-(azeno)-11,7-(metheno) imidazo[2,1-c][1,4,13,15,18]oxa-tetraazacyclo-henicosin-14(15H)-one] | 77.7% | 3.88 µM
